Patent publication US9120815B2, “Solid state forms of macrocyclic kinase inhibitors” (Tragara Pharmaceuticals, Inc., priority 2010, dated 2015)
pIC50: −log10 of the molar value.

How the values were obtained:
[1] = target: JAK V617F (Homo sapiens, UniProt O60674, V617F); conditions: in vitro; cited from earlier work
[2] = Log P determination by potentiometric titration; assay type: physicochemical
Text: Data were collected by potentiometric titration on a Sirius GlpKa instrument using three ratios of octanol:ionic-strength adjusted (ISA) water to generate Log P, Log Pion, and Log D values. The data were refined using Refinement Pro software v2.2. Prediction of Log P values was made using ACD v12 software.

[3] = Stability in humidity chamber 40° C./75% R.H. (XRPD, HPLC); assay type: physicochemical
Procedure: After 2 days, the solids were isolated by filtration under vacuum at RT to be characterised by XRPD analysis. Each new crystalline solid phase detected was characterised by ^1H NMR and TGA-DSC analyses in order to determine if salt formation had occurred and whether the material was a solvate. At this stage, each salt identified was then analysed by HPLC to determine the chemical purity prior to being stored in the humidity chamber (40° C./75% R.H.) to assess its stability.

[4] = Thermodynamic aqueous solubility; assay type: physicochemical
Procedure: Aqueous solubility was determined by suspending sufficient compound in water to give a maximum final concentration of 210 mg·ml^−1 of the parent free-form of the compound. The suspension was equilibrated at 25° C. for 24 hours then the pH was measured. The suspension was then filtered through a glass fibre C filter into a 96 well plate. The filtrate was then diluted by a factor of 101. Quantitation was by HPLC with reference to a standard solution of approximately 0.1 mg·ml^−1. in DMSO. Different volumes of the standard, diluted and undiluted sample solutions were injected. The solubility was calculated using the peak areas determined by integration of the peak found at the same retention time as the principal peak in the standard injection.
Analysis was performed on an Agilent HP1 100 series system equipped with a diode array detector and using ChemStation software vB.02.01-SR1.

[5] = Gravimetric Vapour Sorption (GVS) at 25° C.; assay type: physicochemical
Procedure: Sorption isotherms were obtained using a SMS DVS Intrinsic moisture sorption analyser, controlled by SMS Analysis Suite software. The sample temperature was maintained at 25° C. by the instrument controls. The humidity was controlled by mixing streams of dry and wet nitrogen, with a total flow rate of 200 ml.min^−1. The relative humidity was measured by a calibrated Rotronic probe (dynamic range of 1.0-100% RH), located near the sample. The weight change, (mass relaxation) of the sample as a function of % RH was constantly monitored by the microbalance (accuracy ±0.005 mg). Typically 5-20 mg of sample was placed in a tared mesh stainless steel basket under ambient conditions. The sample was loaded and unloaded at 40% RH and 25° C. (typical room conditions). A moisture sorption isotherm was performed as outlined below (2 scans giving 1 complete cycle). The standard isotherm was performed at 25° C. at 10% RH intervals over a 0.5-90% RH range. The sample was recovered after completion of the isotherm and re-analysed by XRPD.

[6] = test system: HL60; conditions: HL60 cell line; cited from earlier work
[7] = target: T1, FLT3 (Homo sapiens, UniProt P36888); conditions: in vitro; cited from earlier work
T1 sequence (P36888 27-993): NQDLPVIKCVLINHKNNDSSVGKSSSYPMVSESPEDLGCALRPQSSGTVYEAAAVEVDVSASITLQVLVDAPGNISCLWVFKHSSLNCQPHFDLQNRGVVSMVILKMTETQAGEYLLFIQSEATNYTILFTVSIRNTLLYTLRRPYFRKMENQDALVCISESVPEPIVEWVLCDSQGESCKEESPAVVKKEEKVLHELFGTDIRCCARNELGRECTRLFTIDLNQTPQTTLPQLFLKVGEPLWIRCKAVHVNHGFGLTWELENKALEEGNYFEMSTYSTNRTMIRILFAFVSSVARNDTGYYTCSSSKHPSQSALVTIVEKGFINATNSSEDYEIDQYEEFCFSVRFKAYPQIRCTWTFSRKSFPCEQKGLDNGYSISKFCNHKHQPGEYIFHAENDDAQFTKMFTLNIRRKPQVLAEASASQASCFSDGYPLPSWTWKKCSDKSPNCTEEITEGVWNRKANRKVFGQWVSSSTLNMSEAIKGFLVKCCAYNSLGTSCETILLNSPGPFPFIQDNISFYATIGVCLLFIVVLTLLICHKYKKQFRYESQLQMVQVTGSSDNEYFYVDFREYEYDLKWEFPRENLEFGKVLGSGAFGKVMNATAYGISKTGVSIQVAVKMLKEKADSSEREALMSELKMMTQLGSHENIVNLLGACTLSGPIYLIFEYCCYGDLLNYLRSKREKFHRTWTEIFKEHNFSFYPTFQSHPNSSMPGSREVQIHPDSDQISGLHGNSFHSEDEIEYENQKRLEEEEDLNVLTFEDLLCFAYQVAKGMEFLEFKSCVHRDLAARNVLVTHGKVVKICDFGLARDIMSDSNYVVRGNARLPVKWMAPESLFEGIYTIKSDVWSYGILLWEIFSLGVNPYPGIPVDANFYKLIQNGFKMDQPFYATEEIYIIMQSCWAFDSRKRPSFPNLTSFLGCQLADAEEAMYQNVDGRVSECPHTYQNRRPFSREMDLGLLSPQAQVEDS

[8] = test system: HEL92.1.7; conditions: HEL92.1.7 cell line; cited from earlier work
[9] = test system: MV4-11; conditions: MV4-11 cell line; cited from earlier work
[10] = test system: Colo205; conditions: Colo205 cell line; cited from earlier work
[11] = target: JAK2 (Homo sapiens, UniProt O60674); conditions: in vitro; cited from earlier work
JAK2, sequence (O60674 whole entry): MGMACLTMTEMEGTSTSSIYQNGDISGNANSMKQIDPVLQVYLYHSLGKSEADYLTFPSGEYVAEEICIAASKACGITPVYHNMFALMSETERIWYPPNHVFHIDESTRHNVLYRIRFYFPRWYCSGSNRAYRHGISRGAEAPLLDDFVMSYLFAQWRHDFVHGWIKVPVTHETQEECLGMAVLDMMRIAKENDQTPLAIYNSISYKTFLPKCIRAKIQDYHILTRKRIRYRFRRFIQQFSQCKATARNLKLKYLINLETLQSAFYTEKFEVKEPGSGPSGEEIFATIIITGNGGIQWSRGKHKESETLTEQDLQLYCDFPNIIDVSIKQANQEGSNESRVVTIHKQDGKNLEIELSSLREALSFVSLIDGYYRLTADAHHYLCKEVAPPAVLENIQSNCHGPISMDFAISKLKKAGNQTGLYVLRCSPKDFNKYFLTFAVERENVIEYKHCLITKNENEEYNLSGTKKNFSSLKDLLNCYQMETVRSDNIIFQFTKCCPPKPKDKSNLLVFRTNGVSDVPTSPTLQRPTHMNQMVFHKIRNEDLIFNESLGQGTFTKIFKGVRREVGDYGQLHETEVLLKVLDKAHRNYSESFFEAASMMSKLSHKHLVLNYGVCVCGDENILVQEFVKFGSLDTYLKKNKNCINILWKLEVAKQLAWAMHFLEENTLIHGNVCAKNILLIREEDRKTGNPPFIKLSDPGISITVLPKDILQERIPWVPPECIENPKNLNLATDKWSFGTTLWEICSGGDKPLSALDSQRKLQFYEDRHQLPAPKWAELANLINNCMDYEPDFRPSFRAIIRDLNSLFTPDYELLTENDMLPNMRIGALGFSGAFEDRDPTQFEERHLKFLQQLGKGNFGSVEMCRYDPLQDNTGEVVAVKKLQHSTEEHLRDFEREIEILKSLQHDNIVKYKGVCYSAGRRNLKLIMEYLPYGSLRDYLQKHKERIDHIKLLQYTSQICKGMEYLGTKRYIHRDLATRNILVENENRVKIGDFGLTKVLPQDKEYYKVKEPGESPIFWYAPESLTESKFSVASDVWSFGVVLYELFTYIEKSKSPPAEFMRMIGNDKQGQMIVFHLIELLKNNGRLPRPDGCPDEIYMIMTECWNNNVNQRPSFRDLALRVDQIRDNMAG

[12] = test system: DU145; conditions: DU145 cell line; cited from earlier work

JAK V617F, sequence (O60674 whole entry V617F): as the sequence (O60674 whole entry) above, with V617F counted along it

## CN1C/C=C/CCOc2cccc(c2)-c2ccnc(n2)Nc2cccc(c2)C1 [Compound I, 14-methyl-20-oxa-5,7,14,27-tetraazatetracyclo-[19.3.1.12,6.18,12]heptacosa-1(25),2,4,6,8,10,12(26),16,21,23-decaene]
[1]
  pIC50: > 6.00
[2]; octanol/ionic-strength adjusted (ISA) water, pH 7.4, read-out: Measured LogD7.4
  logD: 3.34
[2]; octanol/ionic-strength adjusted (ISA) water, octanol:ISA water, read-out: Measured LogP
  logP: 4.72
[2]; octanol:ISA water
  Measured LogPion: 1.14
[3]; 6 weeks
  XRPD stability (40° C./75% R.H.): No changes were observed in the humidity
[3]; after 6 weeks in the humidity chamber
  HPLC Purity post stability (40° C./75% R.H.): purity of Compound I was measured at 97.0% area
[4]; 25 °C, thermodynamic from solid, water
  solubility at 24 h: < 1 µg/mL
[4]; pH of the aqueous suspension after equilibration
  final pH: 8.9
[4]; water, 25° C., 24 hours
  aqueous solubility: < 1 µg/mL
[5]
  changes in the XRPD pattern after the GVS experiment: between 0 and 90% relative humidity. No
  hydration phenomenon in GVS: GVS analysis was carried out at 25 °C No
[6]
  GI50: < 1000 nM
[7]
  pIC50: > 6.00
[8]
  GI50: < 1000 nM
[9]
  GI50: < 1000 nM
[10]
  GI50: < 1000 nM
[11]
  pIC50: > 6.00
[12]
  GI50: < 1000 nM
